Results taken from patent US20210038681A1, “PHARMACEUTICAL COMPOSITION FOR TREATING VIRAL HEPATITIS C” (priority 2018, published 2021).

Test system: HCV 1a Wild-type replicon
Conditions: read-out: Mean EC50 (nM) ± SD; HCV 1a variant Wild-type; Huh7-Lunet cells

Question: How did the EC50 turn out when `C[C@@]1(F)[C@H](O)[C@@H](CO)O[C@H]1n1ccc(N)nc1=O` [PSI-6130] was run?
Answer: 770 nM
